Measurements: patent US20100069476A1, “COMPOSITIONS AND METHODS FOR REDUCTION OF CUTANEOUS PHOTOAGEING” (MITSUI NORIN CO., LTD, priority 2005, published 2010)

Legend:
H2O2 = experiment: Intracellular release of H2O2 in skin cells after UVB (dihydrorhodamine 123), topical treatment; format: in vivo, mice; settings: for effect on UVB-induced H2O2 production in cells: EGCG about 1 mg/cm^2, ascorbic acid about 0.5 mg/cm^2, topical; for H2O2 production in skin cells, control experiments without UVB: topical treatment individually
Procedure: 2. Hydrogen peroxide production as a marker of oxidative stress.
(§1) Hydrophilic cream was used as a vehicle.
After UVB exposure, a single cell suspension from the epidermis and dermis was prepared following procedures well known in the art. H2O2 was assayed using dihydrorhodamine 123 as a fluorescent dye probe. […] Treatment with ascorbic acid and EGCG inhibited UVB-induced H2O2 production in cells.

[1] = system: oxidation of proteins in the skin; experiment: UVB-induced oxidation of proteins in the skin (protein carbonyl formation, OxyBlot western blot); format: in vivo, mice; settings: EGCG about 1 mg/cm^2, ascorbic acid about 0.5 mg/cm^2, topical
Procedure: as §1
FIG. 4 depicts a western blot analysis using antibodies against carbonyl-containing proteins. Protein oxidation was determined following western blot analysis by using OxyBlot Protein Oxidation Detection kit (Intergen Company, Purchase, N.Y.).

[2] = system: MMP-2, MMP-3, MMP-7 and MMP-9; experiment: UVB-induced expression of matrix metalloproteinases by western blot; format: in vivo, mice; settings: EGCG about 1 mg/cm^2, ascorbic acid about 0.5 mg/cm^2, topical
Source text: 4. Matrix metalloproteinases, like MMP-2, MMP-3, MMP-7 and MMP-9 which play a major role in degradation of extracellular matrix of the skin and leads to skin aging or wrinkle formation.
as §1
Most matrix proteins provide tensile strength to the skin, and are therefore thought to be associated with photoageing and/or wrinkling of skin. We previously reported that chronic exposure of skin to UVB induces the up-regulation of several MMP, particularly, MMP-2, MMP-3, MMP-7 and MMP-9. […] The blots were stripped and re-probed for β-actin antibody to verify equal protein loading and equal transfer of proteins from gel to membrane.

TIMP = experiment: Expression of tissue inhibitor of matrix metalloproteinase in UVB exposed skin; format: in vivo, mice; settings: topical
Source text: 5. Tissue inhibitor of matrix metalloproteinase (TIMP).
Most matrix proteins provide tensile strength to the skin, and are therefore thought to be associated with photoageing and/or wrinkling of skin. […] The blots were stripped and re-probed for β-actin antibody to verify equal protein loading and equal transfer of proteins from gel to membrane.

[3] = system: UV-induced markers of oxidative stress; experiment: UV-induced markers of oxidative stress and skin appearance, UVB one month on alternate days; format: in vivo, mice
Source text: In another exemplary treatment, mice were exposed to UVB (90 mJ/cm^2) for a period of one month on alternate days with or without polyphenone E in the drinking water (0.2%, w/v). Remarkably, this protocol inhibited UV-induced markers of oxidative stress, however, to a lesser extent than topical treatment.

[4] = system: UVB-induced adverse effects in the skin; experiment: Preliminary dose-dependent efficacy against UVB-induced adverse effects in the skin; format: in vivo, mice; settings: topical 1 mg EGCG/cm^2 skin area, preliminary studies
Procedure: (§2) SKH-1 hairless mice were used at an age of between 6-8 weeks. The mice were UVB exposed (90 mJ/cm^2) for two months on alternate days for the present photoageing model. At the termination of the experiment, mice were sacrificed 24 hr after the last UV exposure, skin biopsies were collected for analyzing various parameters.
Ascorbic acid and EGCG (or polyphenon E) were dissolved at various concentrations in a hydrophilic cream and were topically applied on the mouse skin 25-30 min before each exposure of UVB. In preliminary studies, we tested the efficacy of AA and EGCG dose-dependently against UVB-induced adverse effects in the skin.

SKH-1 hairless mice = settings: for prevention of UVB-induced skin damage as measured by the bi-fold thickness test: topical at optimum dosages (AA 0.5 mg/cm^2, EGCG 1 mg/cm^2), UVB 90 mJ/cm^2 two months on alternate days
Procedure: as §2
Ascorbic acid and EGCG (or polyphenon E) were dissolved at various concentrations in a hydrophilic cream and were topically applied on the mouse skin 25-30 min before each exposure of UVB. […] Therefore, to evaluate the anti-photoaging effects, we used this dose in all the experiments performed.
Bi-fold skin thickness of the UV exposed skin site with or without the treatment of ascorbic acid (AA) and EGCG.
Control experiments were performed to verify skin damage due to UVB exposure at the above dosage regimen. […] In the below experiments, mice were irradiated to UVB (90 mJ/cm^2) for two months on alternate days to effect photoageing of the skin. Mice were topically treated either with AA, EGCG or a combination of AA (unless indicated otherwise at 0.5 mg EGCG/cm^2 skin area) and EGCG (unless indicated otherwise at 1 mg EGCG/cm^2 skin area) before each exposure of the UVB to determine the photoprotective effect of these agents. Hydrophilic cream was used as a vehicle. UVB alone irradiated mice (control) were topically treated with vehicle only before UVB exposure.
Therefore, and based on these findings, dosages of ascorbic acid for selected experiments were maintained at about or below 0.5 mg/cm^2.
To determine if the effect was additive or synergistic, ascorbic acid and EGCG were topically used at the above determined optimum dosages.

Row | SMILES | effect on UVB-induced H2O2 production in cells (H2O2) | H2O2 production in skin cells, control experiments without UVB (H2O2) | effect on UVB-induced oxidation of proteins [1] | effect on UVB-induced expression of selected MMP [2] | expression of TIMP (TIMP) | chemopreventive efficacy, compared ([3]; UVB 90 mJ/cm^2 one month on alternate days) | skin appearance in comparison to UV alone exposed skin sites ([3]; plus UV exposed mice) | chemopreventive effects against UVB radiation [4] | prevention of UVB-induced skin damage as measured by the bi-fold thickness test (SKH-1 hairless mice) | dosage up to which photoprotection increased (bi-fold thickness test) (SKH-1 hairless mice; topical, little or no further beneficial effect at increasing dosages) | inflammatory reaction of skin (SKH-1 hairless mice; topical doses substantially above 0.5 mg/cm^2 of skin) | optimum dosage (protection measured by bi-fold skin thickness) (SKH-1 hairless mice; topical, data not shown)
1 | O=C(O[C@@H]1Cc2c(O)cc(O)cc2O[C@@H]1c1cc(O)c(O)c(O)c1)c1cc(O)c(O)c(O)c1 [EGCG, epigallocatechin gallate] | inhibited | did not induce H2O2 production | inhibited UVB-induced oxidation of proteins to some degree | inhibited UVB-induced expression of selected MMP to at least some degree | up-regulated | superior to polyphenone E | relatively better | significant chemopreventive effects | substantially less protection | about 1.0 mg/cm^2 |  | 
2 | O=C1O[C@H]([C@@H](O)CO)C(O)=C1O [ascorbic acid] | inhibited | did not induce H2O2 production | inhibited UVB-induced oxidation of proteins to some degree | inhibited UVB-induced expression of selected MMP to at least some degree | up-regulated |  |  |  | substantially less protection |  | tended to provoke an inflammatory reaction | about 0.5 mg/cm^2
